# Laboratory results reported in patent US20090123391A1, “Novel Formulations” (3M INNOVATIVE PROPERTIES COMPANY, priority 2006, published 2009).
# Experiments:
# [1] = Dose Through Unit (DTU) dose uniformity of MDI; assay type: physicochemical; conditions: for overall mean dose of medicament delivered through the actuator, combining beginning and end of use doses: MDI, Compound A 22.5 μg; for overall mean dose of medicament delivered through the actuator, combining beginning and end of use doses / overall mean dose delivered through the actuator, combined beginning and end of use: HFA 134a; for overall mean dose delivered through the actuator, combining beginning and end of use: Example 4: Compound A in combination with Compound D, HFA-134a MDI 100/100 μg/act, target output compound D 90 μg, compound A 90 μg; for overall mean dose delivered through the actuator, combined beginning and end of use: Example 5: Compound E in combination with Compound A, MDI 100/50 μg/act, target output Compound E 90 μg, Compound A 45 μg
# Method: The dose collection apparatus (500 ml separatory funnel with a cotton plug) was assembled and the flow rate was set to 20 L/min. Test units were stored at ambient conditions for two weeks after manufacture prior to DTU testing. For the testing at the beginning of the unit, the MDIs were primed two times with a priming actuator and four times to waste with the test actuator, shaking the units between each actuation. Two test actuations were collected in the dose collection apparatus, shaking the unit between actuations. The collection apparatus was rinsed with an appropriate volume of diluent, and the rinsate with the collected dose was analyzed by conventional HPLC analysis. For end of unit testing, the MDIs were actuated an additional 48 times to waste, shaking between each actuation. The MDIs were then actuated four times to waste through a new test actuator. Two test actuations were then collected in the dose collection apparatus, shaking the unit between actuations. The collection apparatus was rinsed with an appropriate volume of diluent, and the rinsate with the collected dose was analyzed by conventional HPLC analysis.
# The reported results are the average of ten units at both the beginning and end of unit use.
# [2] = Andersen Cascade Impactor (ACI) fine particle fraction of MDI; assay type: physicochemical; conditions: for Fine Particle Fraction expressed as a percentage of the total dose target, for Compound B, 10 μg and for the Compound A, 25 μg: Example 2: Compound A in combination with Compound B; for Fine Particle Fraction expressed as a percentage of the total dose target, for Compound B, 10 μg and for the Compound A, 25 μg / Fine Particle Fraction (FPF) expressed as a percentage of the total dose target, for Compound C, 12.5 μg and for Compound A, 25 μg: MDI; for Fine Particle Fraction expressed as a percentage of the total dose target, for Compound B, 10 μg and for the Compound A, 25 μg / Fine Particle Fraction (FPF) expressed as a percentage of the total dose target, for Compound C, 12.5 μg and for Compound A, 25 μg / Fine Particle Fraction (FPF) expressed as percentage of the total dose target of Compound E, 100 μg and for Compound A, 50 μg: HFA 134a; for Fine Particle Fraction (FPF) expressed as a percentage of the total dose target, for Compound C, 12.5 μg and for Compound A, 25 μg: Example 3: Compound A in combination with Compound C, 25/12.5 μg/act; for Fine Particle Fraction (FPF) expressed as a percentage of the total dose target, for Compound D, 100 μg, and for Compound A, 100 μg: Example 4: Compound A in combination with Compound D, HFA-134a MDI 100/100 μg/act; for Fine Particle Fraction (FPF) expressed as percentage of the total dose target of Compound E, 100 μg and for Compound A, 50 μg: Example 5: Compound E in combination with Compound A, MDI 100/50 μg/act
# From the text: The fine particle fraction of the aerosol formulations according to the invention may be measured by conventional techniques, for example, by cascade impaction by measuring particle size distribution. The Cascade Impactor is designed to mimic the human buccal cavity and bronchial tract and the cascade Impactor test is designed to reveal the amount of deposition of inhaled drug substance at various stages thereof. As used herein reference to the “cascade impaction” assay means determination of the deposition of the emitted dose in pressurised inhalations as defined in European Pharmacopoeia, Section 2.9.18, 5th edition “Preparations for Inhalation, Apparatus D”. Such techniques enable the “respirable fraction” of the aerosol formulations to be calculated. One method used to calculate the “respirable fraction” is by reference to “fine particle fraction” which is the amount of active ingredient collected in stages 3 to 5 (aerodynamic diameter 1.1-4.7 μm) which represents the lung, per actuation expressed as a percentage of the total amount of active ingredient delivered per actuation using the cascade impactor method described above. Earlier stages represent the aerosol device itself, the throat and the upper reaches of the bronchial tract, and the later stages representing potential systemic absorption through the wall of the lung which may cause serious side effects.
# The Andersen Cascade Impactor Mark II (ACI) was assembled and the flow rate was set to 28.3 L/min. The units were primed four times with the test actuator prior to dose collection, shaking between actuations. Between 5 and 20 actuations were collected in the ACI assembly. The ACI was disassembled and the components were rinsed with an appropriate amount of solvent that ensures dissolution of all formulation ingredients. The rinsate was collected for analysis by conventional HPLC analysis.
# [3] = 0.1% w/w of polymer of formula (II), 12 Week at 40° C./75% relative humidity
# [4] = 0.1% w/w of polymer of formula (II), Initial
smiles,measurement,setting,value
O=CNc1cc([C@@H](O)CNCCc2ccc(NC[C@H](O)c3ccccc3)cc2)ccc1O [Compound B],"overall mean dose of medicament delivered through the actuator, combining beginning and end of use doses","[1]; Example 2: Compound A in combination with Compound B, 25/10 μg/act, 0.1% w/w of polymer of formula (II), 12 Week at 40° C./75% relative humidity, target output Compound B 8.5 μg",99%
same,"overall mean dose of medicament delivered through the actuator, combining beginning and end of use doses","[1]; Example 2: Compound A in combination with Compound B, 25/10 μg/act, 0.1% w/w of polymer of formula (II), Initial, target output Compound B 8.5 μg",98%
same,"overall mean dose of medicament delivered through the actuator, combining beginning and end of use doses","[1]; Example 2: Compound A in combination with Compound B, 25/10 μg/act, surfactant-free, 12 Week at 40° C./75% relative humidity, target output Compound B 8.5 μg",73%
same,"overall mean dose of medicament delivered through the actuator, combining beginning and end of use doses","[1]; Example 2: Compound A in combination with Compound B, 25/10 μg/act, surfactant-free, Initial, target output Compound B 8.5 μg",71%
same,"Fine Particle Fraction expressed as a percentage of the total dose target, for Compound B, 10 μg and for the Compound A, 25 μg",[2]; [3],26%
same,"Fine Particle Fraction expressed as a percentage of the total dose target, for Compound B, 10 μg and for the Compound A, 25 μg",[2]; [4],25%
same,"Fine Particle Fraction expressed as a percentage of the total dose target, for Compound B, 10 μg and for the Compound A, 25 μg","[2]; surfactant-free, 12 Week at 40° C./75% relative humidity",21%
same,"Fine Particle Fraction expressed as a percentage of the total dose target, for Compound B, 10 μg and for the Compound A, 25 μg","[2]; surfactant-free, Initial",20%
"NS(=O)(=O)c1cccc(CCCCOCCCCCCNC[C@H](O)c2ccc(O)c(CO)c2)c1 [Compound C, 3-(4-{[6-({(2R)-2-hydroxy-2-[4-hydroxy-3-(hydroxymethyl)-phenyl]ethyl}amino)hexyl]oxy}butyl)benzenesulfonamide]","overall mean dose of medicament delivered through the actuator, combining beginning and end of use doses","[1]; Example 3: Compound A in combination with Compound C, 25/12.5 μg/act, 0.1% w/w polymer of formula (II), 12 Week at 40° C./75 relative humidity, target output Compound C 11.3 μg",112%
same,"overall mean dose of medicament delivered through the actuator, combining beginning and end of use doses","[1]; Example 3: Compound A in combination with Compound C, 25/12.5 μg/act, 0.1% w/w polymer of formula (II), Initial, target output Compound C 11.3 μg",96%
same,"overall mean dose of medicament delivered through the actuator, combining beginning and end of use doses","[1]; Example 3: Compound A in combination with Compound C, 25/12.5 μg/act, surfactant-free, 12 Week at 40° C./75 relative humidity, target output Compound C 11.3 μg",90%
same,"overall mean dose of medicament delivered through the actuator, combining beginning and end of use doses","[1]; Example 3: Compound A in combination with Compound C, 25/12.5 μg/act, surfactant-free, Initial, target output Compound C 11.3 μg",80%
same,"Fine Particle Fraction (FPF) expressed as a percentage of the total dose target, for Compound C, 12.5 μg and for Compound A, 25 μg","[2]; 0.1% w/w polymer of formula (II), 12 Week 40° C./75 relative humidity",25%
same,"Fine Particle Fraction (FPF) expressed as a percentage of the total dose target, for Compound C, 12.5 μg and for Compound A, 25 μg","[2]; 0.1% w/w polymer of formula (II), Initial",28%
same,"Fine Particle Fraction (FPF) expressed as a percentage of the total dose target, for Compound C, 12.5 μg and for Compound A, 25 μg","[2]; surfactant-free, 12 Week 40° C./75 relative humidity",21%
same,"Fine Particle Fraction (FPF) expressed as a percentage of the total dose target, for Compound C, 12.5 μg and for Compound A, 25 μg","[2]; surfactant-free, Initial",14%
"OCc1cc([C@@H](O)CNCCCCCCOCCOCc2c(Cl)cccc2Cl)ccc1O [Compound D, 4-{(1R)-2-[(6-{2-[(2,6-dichlorobenzyl)oxy]ethoxy}hexyl)amino]-1-hydroxyethyl}-2-(hydroxymethyl) phenol]","overall mean dose delivered through the actuator, combining beginning and end of use",[1]; [3],104%
same,"overall mean dose delivered through the actuator, combining beginning and end of use",[1]; [4],101%
same,"Fine Particle Fraction (FPF) expressed as a percentage of the total dose target, for Compound D, 100 μg, and for Compound A, 100 μg",[2]; [3],27%
same,"Fine Particle Fraction (FPF) expressed as a percentage of the total dose target, for Compound D, 100 μg, and for Compound A, 100 μg",[2]; [4],32%
"COc1ccc(Nc2ccc(CCNCC(O)c3ccc(O)c4[nH]c(=O)ccc34)cc2)cc1-c1ccccc1 (stereo not drawn) [Compound E, N-{2-[4-(3-phenyl-4-methoxyphenyl)aminophenyl]ethyl}-2-hydroxy-2-(8-hydroxy-2(1H)-quinolinon-5-yl)ethylamine]","overall mean dose delivered through the actuator, combined beginning and end of use",[1]; [3],106%
same,"overall mean dose delivered through the actuator, combined beginning and end of use",[1]; [4],104%
same,"Fine Particle Fraction (FPF) expressed as percentage of the total dose target of Compound E, 100 μg and for Compound A, 50 μg",[2]; [3],28%
same,"Fine Particle Fraction (FPF) expressed as percentage of the total dose target of Compound E, 100 μg and for Compound A, 50 μg",[2]; [4],26%
